The text below walks through data of patent publication US6887864B2, “Azepane derivatives” (Hoffmann-La Roche Inc., priority 2002, dated 2005).

Where only a bound is given, the exact number is not on record here.

A short description of data set [1]: mouse plasma stability test. It counts as in vitro ADME. The following applies: 10 μmol/1, 37° C. As to the method:
After defined periods of time with respect to the addition of said compounds to the mouse-plasma (t=0, 0.5, 1, 2, 4 h ), equal portions were isolated from the plasma, separated with HPLC and analyzed by mass spectrometry. During all these steps, the temperature was kept constant at 37° C. In the following table, the plasma stability of compounds according to the invention was compared to one of the selected compounds from EP 0 663 393 A1.

The target in data set [2] is T1, AKT (Homo sapiens, UniProt P31749). In words: ELISA-based AKT kinase assay. It is filed as biochemical. Also noted: made in house; host or cells: Sf9 insect cells. The following applies: AKT expressed in Sf9 cells, substrate peptide 300 nM, ATP 5 μM, 30 min at room temperature. The text has this: In order to study AKT inhibitory activity of the compounds according to the invention, an ELISA-based assay was developed for AKT. The assay design utilized a N-terminally biotinylated substrate peptide. When this substrate was phosphorylated by the AKT kinase, the product was recognized by a substrate/sequence-specific antibody known to bind to particular phosphorylated serine residues. For this assay, a Biotin-[…] peptide and anti-phospho-GSK-3α Ser21 antibody (rabbit) from Cell Signaling Technology/New England Biolabs were used.
T1 sequence (P31749 whole entry): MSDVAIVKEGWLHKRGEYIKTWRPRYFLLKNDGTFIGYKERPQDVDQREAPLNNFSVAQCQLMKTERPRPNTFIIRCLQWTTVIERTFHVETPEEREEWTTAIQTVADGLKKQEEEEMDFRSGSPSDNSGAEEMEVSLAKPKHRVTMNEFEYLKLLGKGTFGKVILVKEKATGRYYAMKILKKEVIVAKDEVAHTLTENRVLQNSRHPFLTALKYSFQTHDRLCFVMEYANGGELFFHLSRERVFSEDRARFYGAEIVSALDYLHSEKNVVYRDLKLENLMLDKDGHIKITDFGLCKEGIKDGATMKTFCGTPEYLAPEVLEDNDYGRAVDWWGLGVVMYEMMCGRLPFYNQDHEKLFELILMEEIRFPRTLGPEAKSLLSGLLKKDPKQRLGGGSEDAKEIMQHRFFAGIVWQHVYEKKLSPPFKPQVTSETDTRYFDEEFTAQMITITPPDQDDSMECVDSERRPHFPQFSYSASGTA
The enzymatic reactions were carried out with AKT expressed in Sf9 cells (100 ng/reaction), substrate peptide (300 nM) and ATP (5 μM) in the absence or presence of different concentrations of compounds dissolved in DMSO. The final concentration of DMSO was 1%. The mixtures were reacted for 30 min at room temperature in assay buffer containing 50 mM Tris-HCl, 10 mM MgCl2, 1.0 mM DTT, 2 mM Na3VO4, pH 7.5, in a final volume of 40 μl. The reaction was stopped with addition of 10 μl 0,12 M EDTA/0,12 M EGTA. The reaction mixture was transferred to a SA-coated micro-titer-plate. After 1 h incubation, the plate was washed with PBS using a 384-well Embla plate washer. Anti-phospho-GSK-3α Ser21 antibody was added. After 1 h incubation the plate was washed with PBS and bound antibody was detected by addition of polyclonal<Rabbit>S-IgG-POD-conjugate from Roche Diagnostics GmbH. After 1 h incubation, the plate was washed with PBS. Amount of phosphorylated peptide was measured by an enzyme-catalyzed color reaction (ABTS conversion) and photometrical measurement at 405 nm.
Calculation of IC50 values were performed with ActivityBase.
(In general: An ELISA detects its analyte on a solid surface through an enzyme-linked reagent.)

Data set [3] deals with T1, AKT. In words: cellular AKT activity assay (GSK-3 Ser21/Ser9 phosphorylation in LNCaP cells, immunoblot). It counts as cell-based. Further details: endogenous in cells; host or cells: LNCaP prostate cancer cells. Conditions: 1 h treatment, inhibitors 6 μM to 187 nM, read-out: values found for effect on AKT activity in living cells (level of GSK-3-Ser21/Ser9 phosphorylation). The text has this:
Additionally to Example 3 the acticity of compounds according to the invention was studied on a cellular AKT activity assay as follows:
Prostate cancer cell line LNCaP was passaged in RPMI 1640 with 10% fetal calf serum, 50 units/ml penicillin, and 50 units/ml streptomycin. LNCaP cells were characterized by a constitutive activation of AKT. Constitutive active AKT phosphorylates glycogen synthase kinase-3 (GSK-3) at Ser21/Ser9 in LNCaP cells. To measure the effect of compounds on the activity of AKT in living cells, LNCaP cells were treated with various concentrations of inhibitors (6 μM to 187 nM). After 1 h, the cells were harvested in lysis solution containing 50 mM HEPES (pH 7.0), 150 mM NaCl, 1.5 mM MgCl2 ,1 mM EGTA, 100 mM NaF, 10 mM sodium PPi, 10% glycerol, 1% Triton X-100, 1 mM Na3 […], […], 5 mM iodoacetic acid, and […]. The proteins from whole cell extracts were electrophoresed on 7.5% SDS/PAGE gels. Afterwards, proteins were transferred onto Nitrocellulose filter and immunoblotting using the enhanced chemiluminescence (ECL) detection system (Amersham Pharmacia) was performed. The level of GSK-3-Ser21/Ser9 phosphorylation was thereby determined using polyclonal anti-P-GSK-3-Ser-21/9 antibody (rabbit; New England Biolabs).
Background: A western blot detects proteins with antibodies after separation by electrophoresis.

As a reminder, the melting point is the temperature, or range, at which the solid turns liquid.

For `Cc1ccc2cc(O)c(C(=O)c3ccc(C(=O)N[C@@H]4CCCNC[C@H]4NC(=O)c4ccncc4)cc3)c(F)c2n1.Cl`, the melting point lay in the range of 255 to 260 °C. Still for that read-out and setting: as for `CC(C)(C)c1ccc2cc(O)c(C(=O)c3ccc(C(=O)N[C@@H]4CCCNC[C@H]4NC(=O)c4ccncc4)cc3)c(F)c2n1.Cl`, the figure is 215 °C; as for `Cl.O=C(N[C@@H]1CCCNC[C@H]1NC(=O)c1ccncc1)c1ccc(C(=O)c2c(O)ccc3ncccc23)cc1`, 215 to 220 °C; as for `CN(C)c1ccc(O)c(C(=O)c2ccc(C(=O)N[C@@H]3CCCNC[C@H]3NC(=O)c3ccncc3)cc2)c1.Cl`, 230 to 245 °C. Same read-out and setting: the result for `Cl.O=C(N[C@@H]1CCCNC[C@H]1NC(=O)c1ccncc1)c1ccc(C(=O)c2cc(N3CCCCC3)ccc2O)cc1` reads 218 to 224 °C. On the same count and under the same terms, the result for `CC1(C)CCCNC1c1ccc(O)c(C(=O)c2ccc(C(=O)N[C@@H]3CCCNC[C@H]3NC(=O)c3ccncc3)cc2)c1F.Cl` (stereo partly drawn) reads 265 °C. The compound `COc1ccc(O)c(C(=O)c2ccc(C(=O)N[C@@H]3CCCNC[C@H]3NC(=O)c3ccnc(N)c3)cc2)c1F.Cl` gave a melting point of 223 to 241 °C. For the compound `Cl.O=C(N[C@@H]1CCCNC[C@H]1NC(=O)c1ccncc1)c1ccc(C(=O)c2c(O)ccc3c2OCCO3)cc1`, the melting point lay in the range of 230 to 240 °C. On the same count and under the same terms, as for `COc1ccc(O)c(C(=O)c2ccc(C(=O)N[C@@H]3CCCNC[C@H]3NC(=O)c3ccncn3)cc2)c1F.Cl`, the figure is 256 to 265 °C. `Cc1cccc(C(=O)c2ccc(C(=O)N[C@@H]3CCCNC[C@H]3NC(=O)c3ccncc3)cc2)c1.Cl` displayed a melting point of 190 to 196 °C. Same read-out and setting: the result for `Cl.O=C(N[C@@H]1CCCNC[C@H]1NC(=O)c1ccncc1)c1ccc(C(=O)c2cc(O)ccc2O)cc1` reads 108 to 114 °C. The same measure, in the same setting: as for `CC(C)Oc1ccc(O)c(C(=O)c2ccc(C(=O)N[C@@H]3CCCNC[C@H]3NC(=O)c3ccncc3)cc2)c1.Cl`, the figure is 243 to 249 °C; as for `Cl.NCc1ccc(O)c(C(=O)c2ccc(C(=O)N[C@@H]3CCCNC[C@H]3NC(=O)c3ccncc3)cc2)c1`, 215 to 218 °C; as for `Cl.O=C(N[C@@H]1CCCNC[C@H]1NC(=O)c1ccncc1)c1ccc(C(=O)c2cc(C3CCCCN3)ccc2O)cc1` (stereo partly drawn), 195 to 210 °C. Same read-out and setting: the result for `CC1(C)CCCN(c2ccc(O)c(C(=O)c3ccc(C(=O)N[C@@H]4CCCNC[C@H]4NC(=O)c4ccncc4)cc3)c2)C1.Cl` reads 194 to 198 °C; that for `CC1(C)CCN(c2ccc(O)c(C(=O)c3ccc(C(=O)N[C@@H]4CCCNC[C@H]4NC(=O)c4ccncc4)cc3)c2)CC1.Cl`, 229 to 234 °C; that for `CC(C)Nc1ccc(O)c(C(=O)c2ccc(C(=O)N[C@@H]3CCCNC[C@H]3NC(=O)c3ccncc3)cc2)c1.Cl`, 227 to 230 °C. For the compound `Cc1cc(C(=O)c2ccc(C(=O)N[C@@H]3CCCNC[C@H]3NC(=O)c3ccncc3)cc2)c(O)cn1.Cl`, the melting point was 203 to 208 °C. For the compound `COc1ccc(O)c(C(=O)c2ccc(C(=O)N[C@@H]3CCCNC[C@H]3NC(=O)c3ccc(O)cc3)cc2)c1F.Cl`, the melting point was in the range of 190 to 196 °C. Same read-out and setting: the result for `CN(C)c1ccc(O)c(C(=O)c2ccc(C(=O)N[C@@H]3CCCNC[C@H]3NC(=O)c3ccc(O)cc3)cc2)c1.Cl` reads 203 to 206 °C; that for `COc1ccc(O)c(C(=O)c2ccc(C(=O)N[C@@H]3CCCNC[C@H]3NC(=O)c3cc(C)c(O)c(C)c3)cc2)c1F.Cl`, 180 to 183 °C.

`Cc1cc(C(=O)N[C@@H]2CNCCC[C@H]2NC(=O)c2ccc(C(=O)c3cc(N(C)C)ccc3O)cc2)cc(C)c1O.Cl`: the melting point lay within 217 to 219 °C. On the same count and under the same terms, the result for `Cl.O=C(N[C@@H]1CCCNC[C@H]1NC(=O)c1ccncc1)c1ccc(C(=O)c2c(O)cc3cccnc3c2F)cc1` reads 247 to 251 °C. As for `COc1ccc(O)c(C(=O)c2ccc(C(=O)N[C@@H]3CCCNC[C@H]3NC(=O)c3ccncc3)cc2)c1F.Cl` [Example 1a, N-{(3R, 4R)-4-[4-(2-Fluoro-6-hydroxy-3-methoxy-benzoyl)-benzoylamino]-azepan-3-yl}-isonicotinamide hydrochloride], the melting point was 200 to 222 °C. Also, in data set [1], the “Decrease [%] (after 4 h)” value is 6.2%.

Turning to `Cc1ccc(O)c(C(=O)c2ccc(C(=O)N[C@@H]3CCCNC[C@H]3NC(=O)c3ccncc3)cc2)c1F.Cl` [Example 2-1, N-{(3R,4R)-4-[4-(2-Fluoro-6-hydroxy-3-methyl-benzoyl)-benzoylamino]-azepan-3-yl}-isonicotinamide hydrochloride], the melting point is 181 to 184 °C. For the same compound, the IC50 at AKT [2] was determined as 0.007 µM. Further, the IC50 at AKT [3] was determined as 3 µM. In addition, the “Decrease [%] (after 4 h)” value in data set [1] was found to be 21.9%.

For `CSc1ccc(O)c(C(=O)c2ccc(C(=O)N[C@@H]3CCCNC[C@H]3NC(=O)c3ccncc3)cc2)c1.Cl` [Example 2-2, N-{(3R,4R)-4-[4-(6-Hydroxy-3-methylsulfanyl-benzoyl)-benzoylamino]-azepan-3-yl}-isonicotinamide hydrochloride], the melting point lay in the range of 183 to 185 °C. The compound further registered an IC50 against AKT [2] of 0.011 µM. Moreover, at AKT [3], the IC50 was found to be 1.5 µM. For the same compound, the “Decrease [%] (after 4 h)” value in data set [1] was 26.9%. Take `COc1ccc(O)c(C(=O)c2ccc(C(=O)N[C@@H]3CCCNC[C@H]3NC(=O)c3ccncc3)cc2)c1OC.Cl` [Example 2-4, N-{(3R,4R)-4-[4-(6-Hydroxy-2,3-dimethoxy-benzoyl)-benzoylamino]-azepan-3-yl}-isonicotinamide hydrochloride]: the melting point was 185 to 193 °C. Also, the IC50 at AKT [2] is 0.116 µM. In addition, the IC50 on AKT [3] is over 24 µM.

Compound `COc1ccc(O)c(C(=O)c2ccc(C(=O)N[C@@H]3CCCNC[C@H]3NC(=O)c3ccncc3)cc2)c1.Cl` [Example 2-5, N-{(3R,4R)-4-[4-(2-Hydroxy-5-methoxy-benzoyl)-benzoylamino]-azepan-3-yl}-isonicotinamide hydrochloride] registered a melting point of 230 to 240 °C. The IC50 against AKT [2] was found to be 0.015 µM. Moreover, at AKT [3], the IC50 amounted to 2 µM. Regarding `Cc1ccc(O)c(C(=O)c2ccc(C(=O)N[C@@H]3CCCNC[C@H]3NC(=O)c3ccncc3)cc2)c1.Cl` [Example 2-6, N-{(3R,4R)-4-[4-(2-Hydroxy-5-methyl-benzoyl)-benzoylamino]-azepan-3-yl}-isonicotinamide hydrochloride], the melting point lay within 215 to 219 °C. This compound gave an IC50 on AKT [2] of 0.016 µM. Further, at AKT [3], the IC50 is 1 µM.
